The values below come from patent US7345073B2, “Method for treating cryptorchidism” (Hormos Medical Ltd., priority 2003, dated 2008).

In assay [1] the test system is Aromatase over expressing mice AROM+ (line 021). In words: Relative testes weights (testes weight/animal weight), AROM+ mice. It counts as in vivo, mouse. The settings on record: AROM+ (021) mice, n = 10; finrozole 10 mg/kg p.o. daily for six weeks; SD 0.0003. On the procedure: (§1) The aromatase inhibitor finrozole {MPV-2213ad (10695U, without purification, Hormos Medical Ltd.} was the test compound. Vehicle (CMC-solution) was used as control substance. CMC-solution was prepared as follows: 0.25 g carboxylmethylcellulosa (CMC) (lot. 939512, Tamro OYJ) was weighed and solubilized in 50 ml of deionized (Milli-Q) water. The solution was prepared once a week and stored at +4° C. The dose level of finrozole 10 mg/kg dose level was used. The vehicle-test/control-solution, which was given to the test animals, was prepared daily as follows: the appropriate amount of finrozole was weighed in a transparent glass mortar. A few drops of vehicle were added and the mixture was thoroughly mixed. After this ⅓ of the final volume of vehicle was added to the mortar and placed into an ultrasonic incubator for five minutes. This procedure was done total of three times to reach the final volume.
(§2) Aromatase over expressing mice AROM^+ were used in this study. The mice were maintained under standard laboratory conditions at 12:12 light/dark cycle, and received free access to soyfree pelleted food (SDS, Witham, Essex, UK), and tap water.
We have generated a transgenic mouse model bearing the human ubiquitin C promoter/human P450 aromatase fusion gene (AROM^+). […]

Assay [2] relates to wild type FVB/N mice. In words: Testes descent (palpation and opening the animal) after six weeks of p.o. treatment, wild type mice. Particulars: wild type FVB/N male mice, nine mice; finrozole 10 mg/kg p.o. daily for six weeks. It counts as in vivo, mouse. On the procedure:
as §1
(§3) In the experiment there was […] different kind of groups of male mice, ten animals in each group. One control group (wild type FVB/N) received vehicle, as well as the other control (021 line) group. The last groups were treated with finrozole (10 mg/kg).
(§4) The dosing (4 ml solution/kg) of the animals took place p.o. daily for six weeks. On Saturdays, however, double dose of the test compounds was given to animals. On sundays there was no treatment.
(§5) The trial was conducted in total of 39 mice. […]

The subject of assay [3] is wild type FVB/N mice. The experiment in a line: Relative testes weights (testes weight/animal weight), wild type mice. It counts as in vivo, mouse. The settings on record: n = 7, finrozole 10 mg/kg p.o. daily for six weeks, SD 0.0003. On the procedure: as §1, §3, §4, §5
Assay [4] relates to Aromatase over expressing mice AROM+ (line 021). The experiment in a line: Testes descent (palpation and opening the animal) after six weeks of p.o. treatment, AROM+ mice. It counts as in vivo, mouse. Particulars: AROM+ (021) male mice, ten mice; finrozole 10 mg/kg p.o. daily for six weeks. How it is done:
as §1, §2
We have generated a transgenic mouse model bearing the human ubiquitin C promoter/human P450 aromatase fusion gene (AROM^+). […] The AROM^+ males present with a multitude of severe structural and functional abnormalities of the reproductive system, such as cryptochidism, dysmorphic semiferous tubules and disrupted spermatogenesis. The males also have small or rudimentary accessory sex glands with abnormal morphology, a prominent prostatic utricle with squamous epithelial metaplasia, and abnormal morphology of ejaculatory duct and vas deferens. In addition, the abdominal wall muscle layer is thin, and the adrenals are enlarged with cortical hyperplasia. […] Some of the disorders in reproductive system, furthenmore, can be explained by the fact that the AROM^+ males are hypo-androgenic. […]

In assay [5] the test system is cryptorchidism (non-descended testes). The settings on record: according to one study; cited from earlier work.

For the compound `N#Cc1ccc(C(C(O)Cc2ccc(F)cc2)n2cncn2)cc1` (single isomer, unassigned) [finrozole, 1-[1-(4-cyanophenyl)-3-(4-fluorophenyl)-2-hydroxypropyl]-1,2,4-triazole, diasteroisomer a+d], the “Relative testes weights (testes weight/animal weight)” value is recorded as 0.0033 in assay [1] and 0.0027 with wild type FVB/N mice [3]. Besides, the “Number of descended testes” value in the assay with wild type FVB/N mice [2] was 18; in assay [4] it was 17. For the same compound, in assay [4], the “Number of partly descended testes” value came to 2. Further, the “Number of undescended testes” value in assay [4] was 1.

Take “LHRH: lutenizing-hormone releasing hormone, hormonal treatment of cryptorchidism (QHWSYGLRPG; Gonadoliberin-1; UniProt P01148 24-33, looked up)”: in assay [5], the “efficacy in cases of true non-descended testes” value is on record as “ineffective”.
